From ChEMBL document CHEMBL6096629, “Indolo[3,2-c]isoquinoline Hydroxamic Acid Derivatives as Novel Orally Topoisomerase-Histone Deacetylase Dual Inhibitors for NSCLC Therapy” (J Med Chem, 2025)

Columns and labels:
Histone deacetylase 2 = Histone deacetylase 2 (Homo sapiens, UniProt Q92769); assay: Inhibition of HDAC2 (unknown origin)
Histone deacetylase 3 = Histone deacetylase 3 (Homo sapiens, UniProt O15379)
Description: Inhibition of HDAC3 (unknown origin)

Histone deacetylase 4 = Histone deacetylase 4 (Homo sapiens, UniProt P56524)
Description: Inhibition of HDAC4 (unknown origin)

Histone deacetylase 5 = Histone deacetylase 5 (Homo sapiens, UniProt Q9UQL6)
Histone deacetylase 5, sequence (Q9UQL6 whole entry): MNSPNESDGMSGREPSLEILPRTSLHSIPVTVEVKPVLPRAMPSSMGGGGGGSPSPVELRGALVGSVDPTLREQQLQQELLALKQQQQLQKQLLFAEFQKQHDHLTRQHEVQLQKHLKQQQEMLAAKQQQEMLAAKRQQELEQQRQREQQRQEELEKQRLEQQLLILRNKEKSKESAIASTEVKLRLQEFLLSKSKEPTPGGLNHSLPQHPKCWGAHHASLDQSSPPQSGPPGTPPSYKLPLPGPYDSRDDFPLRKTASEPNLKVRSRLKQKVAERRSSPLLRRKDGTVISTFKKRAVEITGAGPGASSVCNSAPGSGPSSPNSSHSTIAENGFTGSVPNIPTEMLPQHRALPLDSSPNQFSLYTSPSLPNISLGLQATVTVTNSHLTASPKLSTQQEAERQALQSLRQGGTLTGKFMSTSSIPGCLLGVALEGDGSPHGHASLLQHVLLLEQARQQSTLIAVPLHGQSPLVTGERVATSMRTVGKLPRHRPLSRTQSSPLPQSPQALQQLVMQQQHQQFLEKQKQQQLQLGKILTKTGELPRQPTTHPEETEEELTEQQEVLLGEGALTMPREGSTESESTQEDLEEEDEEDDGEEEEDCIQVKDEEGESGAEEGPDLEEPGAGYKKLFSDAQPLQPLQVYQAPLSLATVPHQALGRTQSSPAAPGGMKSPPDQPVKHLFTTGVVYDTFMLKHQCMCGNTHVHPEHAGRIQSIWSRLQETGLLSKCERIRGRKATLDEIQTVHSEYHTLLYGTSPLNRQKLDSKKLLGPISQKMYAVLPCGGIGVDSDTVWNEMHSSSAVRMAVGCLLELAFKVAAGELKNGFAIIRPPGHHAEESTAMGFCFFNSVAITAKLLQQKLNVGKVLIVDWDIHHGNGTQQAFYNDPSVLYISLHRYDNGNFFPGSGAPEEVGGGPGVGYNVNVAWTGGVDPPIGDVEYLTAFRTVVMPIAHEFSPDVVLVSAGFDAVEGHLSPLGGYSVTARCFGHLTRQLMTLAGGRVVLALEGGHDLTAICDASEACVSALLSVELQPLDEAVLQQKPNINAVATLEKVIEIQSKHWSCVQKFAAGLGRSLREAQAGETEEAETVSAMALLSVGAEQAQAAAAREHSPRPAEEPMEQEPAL
Description: Inhibition of HDAC5 (unknown origin)

[1] = biological target: T1, Protein deacetylase HDAC6 (Homo sapiens, UniProt Q9UBN7)
T1 sequence (Q9UBN7 whole entry): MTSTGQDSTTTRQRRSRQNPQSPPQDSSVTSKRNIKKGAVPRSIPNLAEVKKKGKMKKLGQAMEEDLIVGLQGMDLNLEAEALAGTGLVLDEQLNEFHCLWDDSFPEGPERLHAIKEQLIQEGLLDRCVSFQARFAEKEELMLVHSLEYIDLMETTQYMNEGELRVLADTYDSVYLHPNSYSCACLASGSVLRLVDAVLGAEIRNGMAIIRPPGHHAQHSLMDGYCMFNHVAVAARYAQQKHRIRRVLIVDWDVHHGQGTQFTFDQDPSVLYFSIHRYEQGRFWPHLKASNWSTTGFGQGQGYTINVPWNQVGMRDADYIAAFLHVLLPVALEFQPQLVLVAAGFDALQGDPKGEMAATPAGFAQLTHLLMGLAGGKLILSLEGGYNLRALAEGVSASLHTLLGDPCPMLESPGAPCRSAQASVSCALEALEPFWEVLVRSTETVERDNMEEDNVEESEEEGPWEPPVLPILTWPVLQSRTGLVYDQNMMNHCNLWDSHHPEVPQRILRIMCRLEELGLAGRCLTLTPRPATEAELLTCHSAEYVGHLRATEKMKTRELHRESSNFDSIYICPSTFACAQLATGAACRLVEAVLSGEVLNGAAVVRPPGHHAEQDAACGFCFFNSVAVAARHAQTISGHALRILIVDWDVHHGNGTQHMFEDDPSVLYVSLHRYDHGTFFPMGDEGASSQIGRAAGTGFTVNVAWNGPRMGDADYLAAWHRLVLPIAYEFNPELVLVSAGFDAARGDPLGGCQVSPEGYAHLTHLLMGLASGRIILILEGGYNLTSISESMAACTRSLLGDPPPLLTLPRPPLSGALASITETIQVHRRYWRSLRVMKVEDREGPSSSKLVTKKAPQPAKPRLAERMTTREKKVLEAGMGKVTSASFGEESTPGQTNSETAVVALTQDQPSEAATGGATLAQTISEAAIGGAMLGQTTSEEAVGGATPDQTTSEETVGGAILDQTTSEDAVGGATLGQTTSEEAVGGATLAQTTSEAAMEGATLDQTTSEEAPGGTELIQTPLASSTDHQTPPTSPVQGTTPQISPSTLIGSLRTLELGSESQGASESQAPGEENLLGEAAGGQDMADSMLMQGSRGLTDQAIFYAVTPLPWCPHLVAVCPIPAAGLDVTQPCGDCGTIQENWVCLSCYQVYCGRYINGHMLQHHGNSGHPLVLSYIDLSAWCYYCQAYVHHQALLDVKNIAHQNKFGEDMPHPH
Description: Inhibition of HDAC6 (unknown origin)

Histone deacetylase 7 = biological target: T2, Histone deacetylase 7 (Homo sapiens, UniProt Q8WUI4)
T2 sequence (Q8WUI4 whole entry): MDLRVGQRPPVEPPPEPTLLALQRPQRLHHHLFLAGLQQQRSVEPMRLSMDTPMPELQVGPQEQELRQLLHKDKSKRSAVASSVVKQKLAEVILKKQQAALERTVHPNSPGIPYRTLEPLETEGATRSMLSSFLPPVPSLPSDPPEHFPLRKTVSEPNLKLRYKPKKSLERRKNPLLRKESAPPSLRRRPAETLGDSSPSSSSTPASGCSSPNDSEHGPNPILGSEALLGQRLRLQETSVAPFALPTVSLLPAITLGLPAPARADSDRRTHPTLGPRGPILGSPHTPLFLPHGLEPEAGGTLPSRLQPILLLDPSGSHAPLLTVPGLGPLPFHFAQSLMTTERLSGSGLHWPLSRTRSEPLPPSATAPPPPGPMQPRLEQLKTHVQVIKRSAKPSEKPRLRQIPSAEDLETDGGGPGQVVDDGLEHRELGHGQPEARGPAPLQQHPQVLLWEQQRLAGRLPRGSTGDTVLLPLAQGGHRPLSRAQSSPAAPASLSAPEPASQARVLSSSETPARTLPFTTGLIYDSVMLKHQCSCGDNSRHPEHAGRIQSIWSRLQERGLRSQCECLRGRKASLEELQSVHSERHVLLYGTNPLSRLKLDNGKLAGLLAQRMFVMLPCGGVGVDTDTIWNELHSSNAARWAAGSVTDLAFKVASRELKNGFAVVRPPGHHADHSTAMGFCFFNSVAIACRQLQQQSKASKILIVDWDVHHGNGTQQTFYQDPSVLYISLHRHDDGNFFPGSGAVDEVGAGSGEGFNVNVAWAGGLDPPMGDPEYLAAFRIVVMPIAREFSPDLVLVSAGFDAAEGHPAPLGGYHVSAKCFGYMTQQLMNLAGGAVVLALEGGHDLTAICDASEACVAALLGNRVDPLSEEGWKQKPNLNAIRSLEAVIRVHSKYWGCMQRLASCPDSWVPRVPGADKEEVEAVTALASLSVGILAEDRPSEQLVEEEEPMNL
Description: Inhibition of HDAC7 (unknown origin)

Histone deacetylase 8 = biological target: T3, Histone deacetylase 8 (Homo sapiens, UniProt Q9BY41)
T3 sequence (Q9BY41 whole entry): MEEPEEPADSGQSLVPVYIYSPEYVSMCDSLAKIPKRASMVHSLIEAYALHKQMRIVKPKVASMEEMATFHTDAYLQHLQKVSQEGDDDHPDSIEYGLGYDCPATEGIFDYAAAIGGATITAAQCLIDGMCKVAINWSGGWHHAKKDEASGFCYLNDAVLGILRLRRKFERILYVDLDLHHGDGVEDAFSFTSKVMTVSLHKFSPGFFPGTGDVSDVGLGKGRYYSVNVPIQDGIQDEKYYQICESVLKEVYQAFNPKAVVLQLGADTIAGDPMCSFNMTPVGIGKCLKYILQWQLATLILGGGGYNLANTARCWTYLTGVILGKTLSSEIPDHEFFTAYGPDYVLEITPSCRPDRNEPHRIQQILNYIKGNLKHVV
Description: Inhibition of HDAC8 (unknown origin)

Histone deacetylase 9 = Histone deacetylase 9 (Homo sapiens, UniProt Q9UKV0)
Histone deacetylase 9, sequence (Q9UKV0 whole entry): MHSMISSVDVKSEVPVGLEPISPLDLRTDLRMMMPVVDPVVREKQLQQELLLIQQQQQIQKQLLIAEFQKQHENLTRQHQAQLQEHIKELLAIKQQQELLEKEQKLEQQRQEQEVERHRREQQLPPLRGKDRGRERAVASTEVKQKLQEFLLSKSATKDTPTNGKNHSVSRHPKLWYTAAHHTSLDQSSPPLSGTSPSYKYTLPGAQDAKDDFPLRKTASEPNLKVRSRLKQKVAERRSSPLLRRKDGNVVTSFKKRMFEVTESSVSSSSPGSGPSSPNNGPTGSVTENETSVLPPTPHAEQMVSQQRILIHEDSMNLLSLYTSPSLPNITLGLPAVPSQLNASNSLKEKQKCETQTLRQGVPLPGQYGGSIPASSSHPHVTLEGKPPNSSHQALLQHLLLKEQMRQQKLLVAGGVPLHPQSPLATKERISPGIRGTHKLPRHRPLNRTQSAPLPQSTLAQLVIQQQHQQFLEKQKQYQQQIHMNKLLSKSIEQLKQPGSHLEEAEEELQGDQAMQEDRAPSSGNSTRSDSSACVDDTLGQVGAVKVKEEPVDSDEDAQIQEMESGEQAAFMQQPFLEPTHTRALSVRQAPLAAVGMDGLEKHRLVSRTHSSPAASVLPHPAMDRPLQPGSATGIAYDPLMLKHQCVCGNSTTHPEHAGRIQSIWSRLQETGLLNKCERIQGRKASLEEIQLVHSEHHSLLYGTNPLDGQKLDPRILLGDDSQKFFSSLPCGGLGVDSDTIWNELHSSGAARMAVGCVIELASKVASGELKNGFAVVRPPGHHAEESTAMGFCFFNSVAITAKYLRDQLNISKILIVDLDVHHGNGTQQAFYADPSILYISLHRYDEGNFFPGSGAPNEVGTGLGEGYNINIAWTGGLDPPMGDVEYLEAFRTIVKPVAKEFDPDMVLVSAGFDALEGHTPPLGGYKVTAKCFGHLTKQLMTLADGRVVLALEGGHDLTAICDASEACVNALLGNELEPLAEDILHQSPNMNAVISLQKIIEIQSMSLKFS
Description: Inhibition of HDAC9 (unknown origin)

[2] = biological target: T4, Polyamine deacetylase HDAC10 (Homo sapiens, UniProt Q969S8)
T4 sequence (Q969S8 whole entry): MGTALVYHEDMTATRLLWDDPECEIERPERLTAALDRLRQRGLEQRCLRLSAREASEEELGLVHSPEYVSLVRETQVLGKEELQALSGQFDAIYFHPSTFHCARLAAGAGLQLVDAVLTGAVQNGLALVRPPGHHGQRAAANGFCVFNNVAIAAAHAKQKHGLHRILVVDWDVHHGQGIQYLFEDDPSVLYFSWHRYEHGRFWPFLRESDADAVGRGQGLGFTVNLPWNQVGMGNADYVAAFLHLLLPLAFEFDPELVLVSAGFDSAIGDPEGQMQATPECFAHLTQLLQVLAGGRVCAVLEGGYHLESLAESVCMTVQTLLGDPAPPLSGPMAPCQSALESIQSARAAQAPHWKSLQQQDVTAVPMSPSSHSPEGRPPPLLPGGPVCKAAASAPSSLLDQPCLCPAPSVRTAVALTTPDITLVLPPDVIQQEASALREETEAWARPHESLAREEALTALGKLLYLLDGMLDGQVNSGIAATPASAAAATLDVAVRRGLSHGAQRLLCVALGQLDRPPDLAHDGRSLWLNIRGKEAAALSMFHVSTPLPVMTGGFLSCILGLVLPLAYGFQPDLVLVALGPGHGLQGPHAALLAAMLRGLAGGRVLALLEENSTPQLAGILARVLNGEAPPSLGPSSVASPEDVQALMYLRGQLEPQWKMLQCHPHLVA
Description: Inhibition of HDAC10 (unknown origin)

Histone deacetylase 11 = biological target: T5, Histone deacetylase 11 (Homo sapiens, UniProt Q96DB2)
T5 sequence (Q96DB2 whole entry): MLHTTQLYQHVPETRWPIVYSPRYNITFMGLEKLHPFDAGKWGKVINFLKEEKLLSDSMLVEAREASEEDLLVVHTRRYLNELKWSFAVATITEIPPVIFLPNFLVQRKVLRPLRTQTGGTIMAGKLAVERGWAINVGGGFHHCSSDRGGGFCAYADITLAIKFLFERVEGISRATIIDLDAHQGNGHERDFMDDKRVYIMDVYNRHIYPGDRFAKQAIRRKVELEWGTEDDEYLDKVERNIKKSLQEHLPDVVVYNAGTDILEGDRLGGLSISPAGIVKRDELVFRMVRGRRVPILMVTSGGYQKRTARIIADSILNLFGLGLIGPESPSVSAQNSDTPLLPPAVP
Description: Inhibition of HDAC11 (unknown origin)

NCI-H2228 [3] = assay: Antiproliferative activity against human NCI-H2228 cells incubated for 24 hrs by MTT assay; assay type: functional, cell-based; conditions: NCI-H2228, 24 h
Huh-7 [4] = assay: Antiproliferative activity against human Huh-7 cells incubated for 24 hrs by MTT assay; assay type: functional, cell-based; conditions: Huh-7, 24 h
MDA-MB-231 [5] = assay: cells; assay type: functional, cell-based; conditions: Homo sapiens, MDA-MB-231, 24 h
PC-3 = assay: Antiproliferative activity against human PC-3 cells incubated for 24 hrs in presence of SAHA by MTT assay; assay type: functional, cell-based; conditions: PC-3, 24 h
NCI-H2228 [6] = assay: Antiproliferative activity against human NCI-H2228 cells incubated for 24 hrs in presence of SAHA by MTT assay; assay type: functional, cell-based; conditions: NCI-H2228, 24 h
Huh-7 [7] = assay: Antiproliferative activity against human Huh-7 cells incubated for 24 hrs in presence of SAHA by MTT assay; assay type: functional, cell-based; conditions: Huh-7, 24 h
NCI-H1975 [8] = assay: Inhibition of colony formation in human NCI-H1975 cells incubated for 24 hrs followed by re-culturing in fresh medium without compound measured after 14 days in presence of SAHA by crystal violet staining based analysis relative to control; assay type: functional
NCI-H1975 [9] = assay: Inhibition of cell migration in human NCI-H1975 cells measured after 24 to 48 hrs in presence of SAHA by wound healing assay relative to control; assay type: functional; conditions: time 24-48 hrs
NCI-H1975 [10] = assay: Induction of cell cycle arrest in human NCI-H1975 cells assessed as accumulation at G2/M phase incubated for 48 hrs in presence of SAHA by PI staining based flow cytometry relative to control; assay type: functional
NCI-H1975 [11] = assay: Induction of apoptosis in human NCI-H1975 cells incubated for 24 hrs in presence of SAHA by Annexin V-FITC/PI staining based flow cytometry relative to control; assay type: functional
NCI-H1975 [12] = assay: Antitumor activity against human NCI-H1975 cells xenografted in BALB/c nude mouse at 10 mg/kg, ip bid treated for 21 days in presence of SAHA relative to control; assay type: functional; conditions: time 21 day
[13] = Toxicity BALB/c nude mouse xenografted with human NCI-H1975 cells assessed as body weight loss at 10 mg/kg, ip bid in presence of SAHA treated for 21 days (Rvb > 11.5 %); assay type: organism-based; conditions: in vivo, 504 h, time 21 day
HCT-116 = assay: cells; conditions: Homo sapiens, HCT-116, 24 h
Description: Antiproliferative activity against human HCT-116 cells incubated for 24 hrs in presence of SAHA by MTT assay

MCF7 = assay: cells; conditions: Homo sapiens, MCF7, 24 h
Description: Antiproliferative activity against human MCF7 cells incubated for 24 hrs in presence of SAHA by MTT assay

MDA-MB-231 [14] = assay: cells; conditions: Homo sapiens, MDA-MB-231, 24 h
Description: Antiproliferative activity against human MDA-MB-231 cells incubated for 24 hrs in presence of SAHA by MTT assay

NCI-H1975 [15] = assay: Induction of DNA damage in human NCI-H1975 cells assessed as DNA tail formation at 8 uM incubated for 48 hrs by Comet assay relative to control; assay type: functional
NCI-H1975 [16] = assay: Induction of cell cycle arrest in human NCI-H1975 cells assessed as accumulation at G2/M phase at 4 uM incubated for 48 hrs by PI staining based flow cytometry relative to control; assay type: functional
NCI-H1975 [17] = assay: Induction of cell cycle arrest in human NCI-H1975 cells assessed as accumulation at G2/M phase at 4 uM incubated for 48 hrs in presence of Irinotecan by PI staining based flow cytometry relative to control; assay type: functional
NCI-H1975 [18] = assay: Induction of apoptosis in human NCI-H1975 cells at 4 uM incubated for 24 hrs by Annexin V-FITC/PI staining based flow cytometry relative to control; assay type: functional
NCI-H1975 [19] = assay: Induction of apoptosis in human NCI-H1975 cells at 4 uM incubated for 24 hrs in presence of Irinotecan by Annexin V-FITC/PI staining based flow cytometry relative to control; assay type: functional
[20] = Toxicity BALB/c nude mouse xenografted with human NCI-H1975 cells assessed as body weight loss at 100 mg/kg, po qd in presence of Irinotecan treated for 21 days (Rvb > 11.5 %); assay type: organism-based; conditions: in vivo, 504 h, time 21 day

Histone deacetylase 4, sequence (P56524 whole entry): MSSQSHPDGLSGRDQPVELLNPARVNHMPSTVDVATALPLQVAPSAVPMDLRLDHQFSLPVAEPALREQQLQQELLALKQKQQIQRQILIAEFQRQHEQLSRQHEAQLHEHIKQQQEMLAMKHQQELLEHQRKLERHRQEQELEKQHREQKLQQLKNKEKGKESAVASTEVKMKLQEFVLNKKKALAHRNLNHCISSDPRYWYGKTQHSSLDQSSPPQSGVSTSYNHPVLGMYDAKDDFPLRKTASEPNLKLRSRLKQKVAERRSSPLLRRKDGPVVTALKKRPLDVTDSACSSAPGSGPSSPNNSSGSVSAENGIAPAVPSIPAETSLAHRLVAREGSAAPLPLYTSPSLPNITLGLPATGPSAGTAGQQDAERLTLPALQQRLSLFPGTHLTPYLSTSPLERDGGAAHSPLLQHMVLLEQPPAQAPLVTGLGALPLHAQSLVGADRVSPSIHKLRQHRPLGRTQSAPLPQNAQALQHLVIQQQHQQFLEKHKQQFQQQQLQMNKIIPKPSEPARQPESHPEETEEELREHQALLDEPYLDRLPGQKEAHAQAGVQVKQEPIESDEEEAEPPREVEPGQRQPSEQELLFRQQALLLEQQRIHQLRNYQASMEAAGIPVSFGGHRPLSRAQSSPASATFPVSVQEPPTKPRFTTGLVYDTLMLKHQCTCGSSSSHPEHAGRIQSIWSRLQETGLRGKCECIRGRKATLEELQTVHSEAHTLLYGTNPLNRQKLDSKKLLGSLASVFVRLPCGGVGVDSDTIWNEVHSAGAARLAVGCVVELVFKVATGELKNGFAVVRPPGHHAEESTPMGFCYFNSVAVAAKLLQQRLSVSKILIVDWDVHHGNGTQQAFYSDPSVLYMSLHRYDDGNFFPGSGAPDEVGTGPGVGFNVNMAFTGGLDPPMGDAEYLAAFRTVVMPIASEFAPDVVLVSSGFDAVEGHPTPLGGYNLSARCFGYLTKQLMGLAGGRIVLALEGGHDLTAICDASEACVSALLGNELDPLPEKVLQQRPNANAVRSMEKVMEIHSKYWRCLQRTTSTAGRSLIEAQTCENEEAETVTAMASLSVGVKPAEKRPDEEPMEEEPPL
Histone deacetylase 2, sequence (Q92769 whole entry): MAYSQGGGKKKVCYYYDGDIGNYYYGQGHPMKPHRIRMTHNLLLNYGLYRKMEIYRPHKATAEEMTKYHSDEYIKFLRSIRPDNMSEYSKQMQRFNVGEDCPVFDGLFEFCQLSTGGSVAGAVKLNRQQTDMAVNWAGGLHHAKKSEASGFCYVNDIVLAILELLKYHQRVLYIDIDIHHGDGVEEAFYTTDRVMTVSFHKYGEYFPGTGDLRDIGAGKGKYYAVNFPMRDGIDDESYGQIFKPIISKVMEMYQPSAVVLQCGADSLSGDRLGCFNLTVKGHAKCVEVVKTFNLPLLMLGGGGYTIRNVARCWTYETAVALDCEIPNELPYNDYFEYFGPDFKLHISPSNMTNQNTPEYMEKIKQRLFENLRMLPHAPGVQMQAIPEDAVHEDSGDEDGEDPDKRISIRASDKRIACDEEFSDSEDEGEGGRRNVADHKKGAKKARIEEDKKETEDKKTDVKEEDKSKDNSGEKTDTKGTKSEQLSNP
Histone deacetylase 3, sequence (O15379 whole entry): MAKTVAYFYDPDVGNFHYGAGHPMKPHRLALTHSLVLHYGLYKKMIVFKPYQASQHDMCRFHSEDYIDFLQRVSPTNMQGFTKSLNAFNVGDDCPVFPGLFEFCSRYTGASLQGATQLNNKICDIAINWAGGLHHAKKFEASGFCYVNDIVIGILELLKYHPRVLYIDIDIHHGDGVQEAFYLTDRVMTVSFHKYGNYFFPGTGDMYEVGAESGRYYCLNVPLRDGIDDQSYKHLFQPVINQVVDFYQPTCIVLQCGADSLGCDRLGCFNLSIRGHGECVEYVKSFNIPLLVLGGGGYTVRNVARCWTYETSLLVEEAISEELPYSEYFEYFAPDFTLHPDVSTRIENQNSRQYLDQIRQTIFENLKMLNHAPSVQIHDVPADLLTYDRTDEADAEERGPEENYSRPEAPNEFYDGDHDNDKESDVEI

## O=C(CCCCCCn1c2cc3c(cc2c2ncc4ccccc4c21)OCO3)NO
Histone deacetylase 2
  IC50: 3 nM
Histone deacetylase 3
  IC50: 3 nM
Histone deacetylase 4
  IC50: > 5 µM
Histone deacetylase 5
  IC50: > 5 µM
[1]
  IC50: 4 nM
Histone deacetylase 7
  IC50: > 5 µM
Histone deacetylase 8
  IC50: > 1000 nM
Histone deacetylase 9
  IC50: > 5 µM
[2]
  IC50: 6 nM
Histone deacetylase 11
  IC50: > 5 µM

## CCc1c2c(nc3ccc(OC(=O)N4CCC(N5CCCCC5)CC4)cc13)-c1cc3c(c(=O)n1C2)COC(=O)[C@]3(O)CC [IRINOTECAN]
NCI-H2228 [3]
  IC50: 3.48 µM
Huh-7 [4]
  IC50: > 8 µM
MDA-MB-231 [5]
  IC50: > 8 µM
PC-3
  IC50: 1240 nM
NCI-H2228 [6]
  IC50: 1450 nM
Huh-7 [7]
  IC50: 1790 nM
NCI-H1975 [8]
  inhibition (INH): 61.8%
NCI-H1975 [9]
  inhibition (INH): 40.7%
NCI-H1975 [10]
  Activity: 35%
NCI-H1975 [11]
  Activity: 56.1%
NCI-H1975 [12]; Mus musculus, NCI-H1975, 504 h, read-out: TGI
  inhibition in vivo at 10 mg/kg: 65.8%
NCI-H1975 [12]
  T/C: 39.1%
[13]
  Activity: 22.4%
HCT-116
  IC50: 730 nM
MCF7
  IC50: 970 nM
MDA-MB-231 [14]
  IC50: 1340 nM

## O=C(CCCCCCC(=O)Nc1ccccc1)NO [VORINOSTAT]
NCI-H1975 [15]
  Activity: 19.4%
NCI-H1975 [16]
  Activity: 30.4%
NCI-H1975 [17]
  Activity: 35%
NCI-H1975 [18]
  Activity: 46%
NCI-H1975 [19]
  Activity: 56.1%
[20]
  Activity: 22.4%
